According to patent publication US12509441B2, “Compounds used as kinase inhibitors and application thereof” (TYK MEDICINES (ZHENGZHOU), INC., priority 2020, dated 2025):
Where two headings read alike, the source gives them in different places.

Columns and labels:
Type in all cases: cell-based
[1] = target: Ba/F3-FL-EGFR-H773-V774 ins NPH (Homo sapiens, UniProt P00533, DUP771-773, cells depend on it); assay: Cell proliferation inhibitory activity test (CellTiter-Glo), EGFR exon 20 insertion mutation; details: 72 h, read-out: Ba/F3-FL-EGFR IC50 (nM) H773-V774ins NPH
Method: (§1) Cell Proliferation Inhibitory Activity Test Experiment of EGFR Exon 20 Insertion Mutation:
(§2) Cells such as Ba/F3-FL-EGFR-V769-D770 ins ASV, Ba/F3-FL-EGFR-D77-N771 ins SVD, Ba/F3-FL-EGFR-H773-V774 ins NPH, Ba/F3-FL-EGFR-A763-Y764 ins FQEA, constructed by Hefei Precedo Pharmaceuticals Co., Ltd.
(§3) 1000× compound mother liquor was prepared using DMSO, diluted to 20× final concentration using a culture medium, set aside.
(§4) Cells obtained after centrifugation were suspended with a certain amount of the culture medium and counted. The cell suspension solution was adjusted to a specified density using the culture medium, the diluted cell suspension solution was taken into a 96-well plate; 5 μl of 20× compound solution was added to each well of the 96-well plate, the content of DMSO in the final system was 0.1%; the 96-well plate was incubated for 72 h in a 5% CO2 cell incubator at 37° C.
(§5) The 96-well plate was brought to room temperature before detection, 50 μl of CellTiter-Glo® reagent was added to each well, the plate was read after being shaken for 2 minutes on a shaker and placed for 10 minutes at room temperature.
(§6) Inhibition rate (Inh %) relative to control wells processed by a solvent (DMSO) was calculated using the following equation: Inhibition rate (Inh %)=100−(RLU compound−RLU blank)/(RLU control−RLU blank)*100%

[2] = target: Ba/F3-FL-EGFR-A763-Y764 ins FQEA (Homo sapiens, UniProt P00533, INS763FQEA, cells depend on it); assay: as above; details: 72 h, read-out: Ba/F3-FL-EGFR IC50 (nM) A763-Y764ins FQEA
Method: as §1, §2, §3, §4, §5, §6

[3] = test system: PC9 (EGFRdel19) cells; assay: Cell proliferation inhibitory activity test (WST-8) of related EGFR mutations
Method: (§7) Cell Proliferation Inhibitory Activity Test Experiments of Related EGFR Mutations: 1.
(§8) Cell culture medium: RPMI containing 10% fetal bovine serum, 5 mM HEPES, and 2 mM glutamine.
(§9) Incubated overnight in a 5% carbon dioxide incubator at 37° C.
(§10) The compound was diluted to the required concentration in the culture medium at five times the final concentration. 20 microliters of the compound diluent was transferred to a culture plate containing 80 microliters of the cells incubated overnight, and continued to be incubated for 72 hours.
(§11) After 72 hours, 10 microliters of 6 mg/ml WST8 solution dissolved in a phosphate buffer solution was added, and incubated for 3 hours in 5% carbon dioxide at 37° C. A light absorption value at 450 nm was read and subtracted by an absorption value at 650 nm.
(§12) The obtained light absorption value was used to calculate cell viability according to the following equation: Cell viability %=(OD determination value/OD drug-free cell)×100

[4] = target: Ba/F3 (EGFRdel19/L858R/C797S) (Homo sapiens, UniProt P00533, C797S/L858R, cells depend on it, form not given); assay: as above; details: 72 h, cell viability; read-out: IC 50 (nM) Ba/F3 (EGFRdel19/L858/797s)
[5] = test system: H-1975 (EGFRL858R/T790M) cells; assay: as above
Method: as §7, §8, §9, §10, §11, §12

[6] = target: T1, Ba/F3-FL-EGFR-V769-D770 ins ASV (Homo sapiens, UniProt P00533, DUP767-769, cells depend on it); assay: Cell proliferation inhibitory activity test (CellTiter-Glo), EGFR exon 20 insertion mutation; details: 72 h, read-out: Ba/F3-FL-EGFR IC50 (nM) V769-D770ins ASV
T1 construct: Ba/F3-FL-EGFR IC50 (nM) V769-D770ins ASV; other: 72 h; class symbols; Ba/F3-FL-EGFR IC50 (nM) V769-D770ins ASV
Method: as §1, §2, §3, §4, §5, §6

[7] = target: T2, Ba/F3-FL-EGFR-V769-D770 ins ASV (Homo sapiens, UniProt P00533, cells depend on it, form not given); assay: as above; details: Ba/F3-FL-EGFR exon 20 insertion lines, see Table 6
T2 construct: rows headed: activity relative to the activity of TAK-788; Ba/F3-FL-EGFR

[8] = target: Ba/F3-FL-EGFR-D77-N771 ins SVD (Homo sapiens, UniProt P00533, DUP768-770, cells depend on it); assay: as above; details: 72 h, read-out: Ba/F3-FL-EGFR IC50 (nM) D77-N771ins SVD
Method: as §1, §2, §3, §4, §5, §6

Q: Which GI50 ([1]; class symbols) does the source give for `C=CC(=O)Nc1cc(Nc2ncc(-c3nnc(C)o3)c(-c3cn(C)c4ccccc34)n2)c(OC)cc1N(C)C1[C@H]2CN(C)C[C@@H]12` (some centres unmarked) [Example 18] here?
A: The GI50 was less than 5 nM.

Q: And the GI50 [1]?
A: Its GI50 is 2.8 nM.

Q: And the GI50 ([2]; class symbols)?
A: Its GI50 is less than 5 nM.

Q: And the GI50 [2]?
A: The GI50 was 1.8 nM.

Q: What about the IC50 ([3]; 72 h, cell viability, read-out: IC 50 (nM) PC-9 (EGFRdel19)) of the same compound?
A: The IC50 was 6.61 nM.

Q: What about the “cytostatic activity compared with osimertinib and TAK788” value ([3]; C-9 (EGFRdel19)) of the same compound?
A: The value was “not much different from osimertinib activity”.

Q: And the GI50 [4]?
A: The GI50 was 3980 nM.

Q: What about the “cytostatic activity compared with osimertinib and TAK788” value ([5]; H-1975 (EGFRL858/T790M)) of the same compound?
A: Its value is “not much different from osimertinib activity”.

Q: And the IC50 ([5]; Homo sapiens, NCI-H1975, 72 h, cell viability, read-out: IC 50 (nM) H-1975 (EGFRL858/T790M))?
A: Its IC50 is 91.2 nM.

Q: And the GI50 ([6]; class symbols)?
A: Its GI50 is less than 5 nM.

Q: And the GI50 [6]?
A: The GI50 was 1.9 nM.

Q: What about the “activity relative to the activity of TAK-788” value [7] of the same compound?
A: The value was “around 2 times”.

Q: And the GI50 ([8]; class symbols)?
A: The GI50 was less than 5 nM.

Q: What about the GI50 [8] of the same compound?
A: Its GI50 is 2.8 nM.
